Experimental data from paper PMC9995496, “A screen for MeCP2-TBL1 interaction inhibitors using a luminescence-based assay” (Scientific Reports, 2023).
Counter-ions that a name gives are not always drawn. Like-named read-outs stand apart in the source and are kept apart here.

Tested on: PRKACA-PRKAR2A interaction (SmBiT-PRKACA / LgBiT-PRKAR2A), protein kinase A
Parameters: NanoLuc complementation counter-screen in cell extract, PRKACA with PRKAR2A, loss of luminescence, detects NanoLuc interference
Settings: 0.5 h, 20 µM, inhibitor
[1] = counter-screen for NanoLuc interference
[2] = counter-screen for NanoLuc interference, Inh (PKA)

Structure (SMILES)	Inh (PKA) [1]	further results
CC(C)(C)c1cc(NC(=O)Nc2ccc(-c3cn4c(n3)sc3cc(OCCN5CCOCC5)ccc34)cc2)no1 [UM0130989:03, Quizartinib (AC220)]	1.247%	
CNC(=O)c1cc(Oc2ccc(NC(=O)Nc3ccc(Cl)c(C(F)(F)F)c3)cc2)ccn1 [UM0130993:02, Sorafenib Tosylate]		Inh (PKA) [2]: 7.099%
COc1ccc(Cl)c(Nc2nc3ccccc3nc2NS(=O)(=O)c2cccc(NC(=O)C(C)(C)N)c2)c1 [UM0130997:02, XL147]	61.81%	
Cc1ccc(NC(=O)c2cccc(N(C)C)c2)cc1NC(=O)c1ccc(O)cc1 [UM0130998:02, ZM336372]	21.08%	
CCN(CC)CCCCNc1ncc2cc(-c3cc(OC)cc(OC)c3)c(NC(=O)NC(C)(C)C)nc2n1 [UM0131000:03, PD 173074]	0.205%	
COc1cc2nccc(Oc3ccc(NC(=O)Nc4ccc(F)cc4F)c(F)c3)c2cc1OC [UM0131001:04, Ki8751]	5.997%	
CCN(CC)CCOc1ccc(C(=C(Cl)c2ccccc2)c2ccccc2)cc1 [UM0132668:02, Clomiphene citrate]	14.01%	
N[C@@H](Cc1ccc(N(CCCl)CCCl)cc1)C(=O)O [UM0132725:02, Melphalan]		Inh (PKA): 3.23
Cn1ccnc1S [UM0132728:02, Methimazole]	3.033%	
CCCc1cc(=O)[nH]c(=S)[nH]1 [UM0132755:02, Propylthiouracil]	1.031%	
Cn1c(=O)c2nc[nH]c2n(C)c1=O [UM0132766:02, Theophylline]	-0.2913%	
CNCCc1ccccn1 [UM0132794:02, Betahistine 2HCl]	2.049%	
COc1c(C)c2c(c(O)c1C/C=C(\C)CCC(=O)O)C(=O)OC2 [UM0132795:02, Mycophenolic acid]	1.414%	
O=c1ccc2cc(O)c(O)cc2o1 [UM0132846:02, 6,7-Dihydroxycoumarin]	4.392%	
COc1ccc2c3c1O[C@H]1C[C@@H](O)C=C[C@@]31CCN(C)C2 [UM0132882:02, Galanthamine HBr]		Inh (PKA) [2]: 0.1906%
CCOC(=O)[C@H](CCc1ccccc1)N[C@@H](C)C(=O)N1CCC[C@H]1C(=O)O [UM0132889:02, Enalapril Maleate]	-0.0661%	
Nc1nc(=O)c2nc(CNc3ccc(C(=O)N[C@@H](CCC(=O)O)C(=O)O)cc3)cnc2[nH]1 [UM0132892:02, Folic acid]	2.052%	
CC(=O)/N=c1/sc(S(N)(=O)=O)nn1C [UM0132958:02, Methazolamide]	0.8823%	
CCN1CCN(c2cc3c(cc2F)c(=O)c(C(=O)O)cn3C2CC2)CC1 [UM0132985:02, Enrofloxacin]	1.786%	
C=CC[C@@H]1/C=C(\C)C[C@H](C)C[C@H](OC)[C@H]2O[C@@](O)(C(=O)C(=O)N3CCCC[C@H]3C(=O)O[C@H](/C(C)=C/[C@@H]3CC[C@@H](O)[C@H](OC)C3)[C@H](C)[C@@H](O)CC1=O)[C@H](C)C[C@@H]2OC [UM0132999:02, Tacrolimus (FK506)]	15.44%	
CC[C@H](C)C(=O)O[C@H]1C[C@@H](C)C=C2C=C[C@H](C)[C@H](CC[C@@H]3C[C@@H](O)CC(=O)O3)[C@H]21 [UM0133001:02, Lovastatin]	15.39%	
CS(=O)(=O)c1ccc(C2=C(c3ccccc3)C(=O)OC2)cc1 [UM0133054:02, Rofecoxib]	1.384%	

Structure (SMILES)	Inh (PKA) [1]	further results
CCCCC1=NC2(CCCC2)C(=O)N1Cc1ccc(-c2ccccc2-c2nnn[nH]2)cc1 [UM0133057:02, Irbesartan]	5.211%	
CC1COc2c(N3CCN(C)CC3)c(F)cc3c(=O)c(C(=O)O)cn1c23 (centres unmarked) [UM0133058:02, Ofloxacin]	-0.3552%	
Cc1ccc(=O)n(-c2ccccc2)c1 [UM0133133:02, Pirfenidone]	0.9802%	
CCOC(=O)[C@H](CCc1ccccc1)N[C@@H](C)C(=O)N1[C@H](C(=O)O)C[C@@H]2CCC[C@@H]21 [UM0133179:02, Ramipril]	0.6461%	
C/C=C1\[C@H]2C=C(C)C[C@]1(N)c1ccc(=O)[nH]c1C2 [UM0133189:02, (-)-Huperzine A]	0.2799%	
COc1ccc(-c2oc3c(CC=C(C)C)c(O[C@@H]4O[C@H](CO)[C@@H](O)[C@H](O)[C@H]4O)cc(O)c3c(=O)c2O[C@@H]2O[C@@H](C)[C@H](O)[C@@H](O)[C@H]2O)cc1 [UM0133190:02, Icariin]	17.39%	
CNCC[C@H](Oc1cccc2ccccc12)c1cccs1 [UM0133232:02, Duloxetine HCl]	23.56%	
CN(C/C=C/C#CC(C)(C)C)Cc1cccc2ccccc12 [UM0133235:02, Terbinafine HCl]	7.743%	
Oc1cc(Cl)ccc1Oc1ccc(Cl)cc1Cl [UM0133255:02, Triclosan]	50.68%	
CCOC(=O)c1cncn1[C@H](C)c1ccccc1 [UM0133274:02, Etomidate]		Inh (PKA): 13.38%
CN1CC(=O)N2[C@H](c3ccc4c(c3)OCO4)c3[nH]c4ccccc4c3C[C@@H]2C1=O [UM0133276:02, Tadalafil]	5.88%	
CN(C)CCOc1ccc(/C(=C(/CCCl)c2ccccc2)c2ccccc2)cc1 [UM0133287:02, Toremifene Citrate]	53.21%	
CC(=O)NCCCS(=O)(=O)O [UM0133300:02, Acamprosate calcium]	0.9397%	
CSc1nc2cc(Cl)c(Oc3cccc(Cl)c3Cl)cc2[nH]1 [UM0133345:02, Triclabendazole]	37.19%	
O=C(N/N=C/c1ccc([N+](=O)[O-])o1)c1ccc(O)cc1 [UM0133346:02, Nifuroxazide]	17.08%	
CCOC(=O)C1=C[C@@H](OC(CC)CC)[C@H](NC(C)=O)[C@@H](N)C1 [UM0133352:02, Oseltamivir phosphate]		Inh (PKA) [2]: -0.5287%
O=C1CCc2ccc(OCCCCN3CCN(c4cccc(Cl)c4Cl)CC3)cc2N1 [UM0133361:02, Aripiprazole]	19.63%	
CC1=C(O)C(=O)C=C2C1=CC=C1[C@@]2(C)CC[C@@]2(C)[C@@H]3C[C@](C)(C(=O)O)CC[C@]3(C)CC[C@]12C [UM0133421:02, Celastrol]	15.02%	
C/C=C/c1ccc2c(c1)OCO2 [UM0133473:02, Isosafrole]		Inh (PKA): 2.424%
Clc1ccc2c(c1)C(N1CCNCC1)=Nc1ccccc1O2 [UM0133517:02, Amoxapine]	7.389%	
Nc1ncn([C@@H]2O[C@H](CO)[C@@H](O)[C@H]2O)c(=O)n1 [UM0133525:02, 5-Azacytidine]	1.069%	
CN(Cc1cnc2nc(N)nc(N)c2n1)c1ccc(C(=O)N[C@@H](CCC(=O)O)C(=O)O)cc1 [UM0133539:02, Methotrexate]	2.622%	

Structure (SMILES)	Inh (PKA) [1]	further results
O=c1c(O)c(-c2ccc(O)c(O)c2)oc2cc(O)cc(O)c12 [UM0133552:02, Quercetin dihydrate]		Inh (PKA) [2]: 33.9%
O=c1c(O)c(-c2ccc(O)c(O)c2)oc2cc(O)cc(O)c12 [UM0133552:03, Quercetin]		Inh (PKA) [2]: 26.1%
NC(=O)N1c2ccccc2C=Cc2ccccc21 [UM0133618:02, Carbamazepine]	3.187%	
NS(=O)(=O)c1cc2c(cc1Cl)N=CNS2(=O)=O [UM0133622:02, Chlorothiazide]	0.9686%	
Cc1nnc(SCC2=C(C(=O)O)N3C(=O)[C@@H](NC(=O)Cn4cnnn4)[C@H]3SC2)s1 [UM0133624:02, Cefazolin (sodium salt)]	0.1508%	
CO/N=C(\C(=O)N[C@@H]1C(=O)N2C(C(=O)O)=C(COC(C)=O)CS[C@H]12)c1csc(N)n1 [UM0133637:02, Cefotaxime (sodium salt)]	1.378%	
CC[C@@]1(O)C(=O)OCc2c1cc1n(c2=O)Cc2cc3ccccc3nc2-1 [UM0133648:02, Camptothecin]	1.997%	
COCCOC(=O)C1=C(C)NC(C)=C(C(=O)OC/C=C/c2ccccc2)C1c1cccc([N+](=O)[O-])c1 (centres unmarked) [UM0133650:02, Cilnidipine]	81.64%	
CCCCCCCCCCCC1=C(O)C(=O)C=C(O)C1=O [UM0133662:02, Embelin]	15.52%	
CC(C)=CC[C@@H](O)C1=CC(=O)c2c(O)ccc(O)c2C1=O [UM0133665:02, Shikonin]	46.09%	
Nc1ccn([C@H]2CC[C@@H](CO)O2)c(=O)n1 [UM0133684:02, Zalcitabine]	-0.04839%	
CC(C)(C)NC(=O)[C@H]1CC[C@H]2[C@@H]3CC[C@H]4NC(=O)C=C[C@]4(C)[C@H]3CC[C@]12C [UM0133719:02, Finasteride]	1.602%	
COCCCC/C(=N\OCCN)c1ccc(C(F)(F)F)cc1 [UM0133722:02, Fluvoxamine maleate]	2.345%	
O=c1[nH]cc(F)c(=O)[nH]1 [UM0133724:03, Fluorouracil (Adrucil)]	1.181%	
O=C(/C=C/c1ccc(O)c(O)c1)OCCc1ccccc1 [UM0133732:02, Caffeic Acid Phenethyl Ester]	43.72%	
C[C@H]1CCC/C=C/[C@@H]2C[C@H](O)C[C@H]2[C@H](O)/C=C/C(=O)O1 [UM0133745:02, Brefeldin A]	1.414%	
O=c1c(-c2ccc(O)cc2)coc2cc(O)cc(O)c12 [UM0133748:02, Genistein]	59.26%	
CC1=C(/C=C/C(C)=C/C=C/C(C)=C\C(=O)O)C(C)(C)CCC1 [UM0133752:04, Isotretinoin]	16.35%	
CC1(C)CCC2=C(O1)c1ccccc1C(=O)C2=O [UM0133760:02, Beta-Lapachone]	9.4%	
CO[C@@]12[C@H](COC(N)=O)C3=C(C(=O)C(C)=C(N)C3=O)N1C[C@@H]1N[C@@H]12 [UM0133761:02, Mitomycin C]	0.5965%	
COc1cccc2c1C(=O)c1c(O)c3c(c(O)c1C2=O)C[C@@](O)(C(=O)CO)C[C@@H]3O[C@H]1C[C@H](N)[C@H](O)[C@H](C)O1 [UM0133765:03, Doxorubicin]	45.98%	
